Earlier results on 1 compound are cited in patent US8968725B2, “Genipin cross-linked fibrin gels” (University of Vermont and State Agricultural College, priority 2010, dated 2015).

In the series the test system is mice. The note with it: mouse, in vivo, iv.

What is called LD50 is the dose at which mortality reaches 50%. Take `COC(=O)C1=CO[C@@H](O)[C@H]2C(CO)=CC[C@H]12` [Genipin, Methyl (1R,2R,6S)-2-hydroxy-9-(hydroxymethyl)-3-oxabicyclo[4.3.0]nona-4,8-diene-5-carboxylate]: the LD50 was 382 mg/kg.
